Source: patent US11639353B2, “Cyclobutanes- and azetidine-containing mono and spirocyclic compounds as αV integrin inhibitors” (BRISTOL-MYERS SQUIBB COMPANY, priority 2016, dated 2023)

Target: T1, human αVβ6 (Homo sapiens, UniProt P06756+P18564)
T1 construct: purchased R & D systems 3817-AV
Assay: human αVβ6 HTRF binding assay
Details: alternatively SPA-based assay
Procedure, shortened: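 Biotinylated recombinant human αVβ6 (1.25 nM final) incubated with FITC-fibronectin (5 nM final) 1 h at RT, then streptavidin-terbium (0.625 nM final) added and left overnight at RT in the dark before HTRF reading. Buffer: 20 mM Tris pH 7.4, 1 mM MgCl2, 1 mM MnCl2, 0.01% Tween 20, 0.01% BSA.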

T1 sequence (P06756 31-992 limits assumed): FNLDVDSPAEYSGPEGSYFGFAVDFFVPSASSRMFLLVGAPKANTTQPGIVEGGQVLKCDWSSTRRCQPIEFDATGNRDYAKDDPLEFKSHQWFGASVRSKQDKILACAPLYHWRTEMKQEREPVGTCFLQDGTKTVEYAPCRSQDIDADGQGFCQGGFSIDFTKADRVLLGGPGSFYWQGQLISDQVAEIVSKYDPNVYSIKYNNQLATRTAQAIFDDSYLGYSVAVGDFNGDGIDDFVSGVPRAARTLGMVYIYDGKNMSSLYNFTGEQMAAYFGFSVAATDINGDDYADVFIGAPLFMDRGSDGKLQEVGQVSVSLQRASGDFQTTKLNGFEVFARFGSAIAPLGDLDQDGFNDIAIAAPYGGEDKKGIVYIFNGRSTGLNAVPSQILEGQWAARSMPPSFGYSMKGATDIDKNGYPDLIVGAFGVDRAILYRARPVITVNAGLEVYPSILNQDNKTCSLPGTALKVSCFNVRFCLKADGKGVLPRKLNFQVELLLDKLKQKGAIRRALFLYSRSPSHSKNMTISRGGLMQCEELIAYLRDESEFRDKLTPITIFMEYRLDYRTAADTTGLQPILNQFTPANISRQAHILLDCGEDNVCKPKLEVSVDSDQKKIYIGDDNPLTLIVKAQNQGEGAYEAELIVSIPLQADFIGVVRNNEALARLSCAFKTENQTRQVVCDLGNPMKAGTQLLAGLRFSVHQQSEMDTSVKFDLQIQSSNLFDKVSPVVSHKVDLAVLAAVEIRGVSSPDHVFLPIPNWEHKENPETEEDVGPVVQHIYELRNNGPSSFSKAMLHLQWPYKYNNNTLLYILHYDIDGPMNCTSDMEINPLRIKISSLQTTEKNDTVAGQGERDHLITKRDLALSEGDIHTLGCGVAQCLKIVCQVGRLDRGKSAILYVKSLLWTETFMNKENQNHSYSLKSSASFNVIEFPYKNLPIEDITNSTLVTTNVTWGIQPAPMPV
T1 sequence (P18564 22-707 limits assumed): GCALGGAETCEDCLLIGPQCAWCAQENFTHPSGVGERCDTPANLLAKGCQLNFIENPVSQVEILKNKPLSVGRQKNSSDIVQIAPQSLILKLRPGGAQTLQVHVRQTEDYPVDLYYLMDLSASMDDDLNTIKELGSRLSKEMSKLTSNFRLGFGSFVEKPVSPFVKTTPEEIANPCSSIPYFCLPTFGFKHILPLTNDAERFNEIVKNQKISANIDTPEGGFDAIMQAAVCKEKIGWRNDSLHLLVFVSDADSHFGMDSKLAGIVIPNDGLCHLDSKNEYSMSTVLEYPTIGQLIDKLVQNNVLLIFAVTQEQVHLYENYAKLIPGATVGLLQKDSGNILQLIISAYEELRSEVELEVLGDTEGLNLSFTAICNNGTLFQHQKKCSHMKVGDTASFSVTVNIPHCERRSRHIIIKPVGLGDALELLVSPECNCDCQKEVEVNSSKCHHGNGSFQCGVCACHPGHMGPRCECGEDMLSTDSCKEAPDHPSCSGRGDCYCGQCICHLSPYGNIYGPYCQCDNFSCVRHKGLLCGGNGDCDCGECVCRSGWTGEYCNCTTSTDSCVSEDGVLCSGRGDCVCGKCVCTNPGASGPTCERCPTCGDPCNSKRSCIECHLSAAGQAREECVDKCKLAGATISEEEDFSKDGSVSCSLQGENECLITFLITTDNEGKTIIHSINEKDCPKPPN

Molecule | IC50
O=C(N[C@@H](CC(=O)N1CC2(CC(CCc3ccc4c(n3)NCCC4)C2)C1)C(=O)O)OCc1ccccc1 [Example 61] | 20 nM
O=C(O)C[C@H](NC1CC2(C1)CN(CCCc1ccc3c(n1)NCCC3)C2)c1cc(Cl)cc(Cl)c1 [Example 79] | 3.2 nM
COc1ccc(C(CC(=O)O)C2CC3(C2)CN(CCCc2ccc4c(n2)NCCC4)C3)cn1 (stereo not drawn) [Example 99] | 5.9 nM
COc1ccc(C(CC(=O)O)C2CC(NCCCc3ccc4c(n3)NCCC4)C2)cn1 (stereo not drawn) [Example 125] | 5.7 nM
COc1ccc([C@@H](CC(=O)O)C2(F)CN(C(=O)CCCc3ccc4c(n3)NCCC4)C2)cn1 (single isomer, unassigned) [Example 18] | 170 nM
O=C(O)C[C@H](NC1CN(CCCc2ccc3c(n2)NCCC3)C1)c1cc(Cl)cc(Cl)c1 [Example 74] | 0.5 nM
Cc1cc(C)c(S(=O)(=O)N[C@@H](CNC(=O)C2CC3(C2)CN(CCc2ccc4c(n2)NCCC4)C3)C(=O)O)c(C)c1 [Example 35] | 2.7 nM
Cc1cc(C)c(S(=O)(=O)N[C@@H](CN2CC(CCCc3ccc4c(n3)NCCC4)C2=O)C(=O)O)c(C)c1 (single isomer, unassigned) [Example 186] | 0.61 nM
COc1ccc(CN(CCC(=O)O)C2CN(CCCc3ccc4c(n3)NCCC4)C2)cn1 [Example 23, 3-(((6-Methoxypyridin-3-yl)methyl)(1-(3-(5,6,7,8-tetrahydro-1,8-naphthyridin-2-yl)propyl)azetidin-3-yl)amino)propanoic acid] | 2.8 nM
COC(=O)N(C1CC2(C1)CN(CCc1ccc3c(n1)NCCC3)C2)[C@@H](CC(=O)O)c1cc(Cl)cc(Cl)c1 [Example 19, (S)-3-(3,5-Dichlorophenyl)-3-((methoxycarbonyl)(2-(2-(5,6,7,8-tetrahydro-1,8-naphthyridin-2-yl)ethyl)-2-azaspiro[3.3]heptan-6-yl)amino)propanoic acid] | 84.5 nM
CCCOC(=O)N[C@@H](CC(=O)N1CC(CCc2ccc3c(n2)NCCC3)C1)C(=O)O [Example 175] | 735 nM
CN(C1CN(CCCc2ccc3c(n2)NCCC3)C1)[C@@H](CC(=O)O)c1cc(Cl)cc(Cl)c1 [Example 98] | 0.53 nM
O=C(O)C[C@H](NC(=O)C1CC2(C1)CN(CCc1ccc3c(n1)NCCC3)C2)c1cc(Cl)cc(Cl)c1 [Example 33] | 2.7 nM
CCOC(=O)C[C@H](NC(=O)C1CC2(C1)CN(CCc1ccc3c(n1)NCCC3)C2)c1cc(Cl)cc(Cl)c1 [Example 49] | 480 nM
COc1ccc([C@H](CC(=O)O)NC(=O)N2CC(F)(CCc3ccc4c(n3)NCCC4)C2)cc1F [Example 76] | 0.96 nM
CC(=O)N(C1CN(CCCc2ccc3c(n2)NCCC3)C1)[C@@H](CC(=O)O)c1cc(Cl)cc(Cl)c1 [Example 21, (S)-3-(3,5-Dichlorophenyl)-3-(N-(1-(3-(5,6,7,8-tetrahydro-1,8-naphthyridin-2-yl)propyl)azetidin-3-yl)acetamido)propanoic acid] | 9.8 nM
(S)-Ethyl 3-(6-methoxypyridin-3-yl)-3-(1-methyl-3-(2-(5,6,7,8-tetrahydro-1,8-naphthyridin-2-yl)ethyl)cyclobutanecarboxamido)propanoate [Example 16] | 2.6 nM
COc1ccc([C@H](CC(=O)O)N2CC(CCCCc3ccc4c(n3)NCCC4)C2=O)cn1 (stereo partly drawn) [Example 68] | 2.4 nM
O=C(O)C[C@@H](c1cc(Cl)cc(Cl)c1)N1CC(CCCCc2ccc3c(n2)NCCC3)C1=O (stereo partly drawn) [Example 108] | 0.72 nM
CCOC(=O)C[C@H](NC(=O)C1CC2(C1)CN(CCc1ccc3c(n1)NCCC3)C2)c1ccc(OC)c(F)c1 [Example 31] | 230 nM
O=C(N[C@@H](CNC(=O)[C@H]1C[C@@H](Cc2ccc3c(n2)NCCC3)C1)C(=O)O)OCc1ccccc1 [Example 196, (S)-2-(((Benzyloxy)carbonyl)amino)-3-(cis-3-((5,6,7,8-tetrahydro-1,8-naphthyridin-2-yl)methyl)cyclobutane-1-carboxamido)propanoic acid] | 5.1 nM

The remaining lines, values ahead:

IC50 | Molecule
16 nM | CN(C1CC2(C1)CN(CCc1ccc3c(n1)NCCC3)C2)[C@@H](CC(=O)O)c1cc(Cl)cc(Cl)c1 [Example 20, (S)-3-(3,5-Dichlorophenyl)-3-(methyl(2-(2-(5,6,7,8-tetrahydro-1,8-naphthyridin-2-yl)ethyl)-2-azaspiro[3.3]heptan-6-yl)amino)propanoic acid]
0.85 nM | CC1(CCCCc2ccc3c(n2)NCCC3)CN([C@@H](CC(=O)O)c2ccc(F)c(F)c2)C1 [Example 161]
93 nM | O=C(O)CCC1CC2(C1)CC(CCc1ccc3c(n1)NCCC3)C2 (stereo not drawn) [Example 124]
2 nM | CC(C)(C)c1cc(Br)cc([C@H](CC(=O)O)NC(=O)C2CC3(C2)CN(CCc2ccc4c(n2)NCCC4)C3)c1 [Example 34]
1.6 nM | COc1ccc([C@H](CC(=O)O)NC(=O)C2CN(CCCc3ccc4c(n3)NCCC4)C2)cn1 [Example 40]
1.3 nM | CC1(CCCCc2ccc3c(n2)NCCC3)CN([C@@H](CC(=O)O)c2cc(F)cc(F)c2)C1 [Example 160]
0.4 nM | COc1ccc([C@H](CC(=O)O)NC(=O)C2CN(CCc3ccc4c(n3)NCCC4)C2)cc1F [Example 42]
24 nM | O=C(O)[C@H](CN1CC(CCCc2ccc3c(n2)NCCC3)C1=O)NS(=O)(=O)c1ccc(F)cc1 (single isomer, unassigned) [Example 187]
3.2 nM | Cc1ncc([C@H](CC(=O)O)N2CC(COCCc3ccc4c(n3)NCCC4)C2)cn1 [example 129, (S)-3-(2-methylpyrimidin-5-yl)-3-(3-((2-(5,6,7,8-tetrahydro-1,8-naphthyridin-2-yl)ethoxy)methyl)azetidin-1-yl)propanoic acid]
2000 nM | O=C(O)C[C@H](NC(=O)C1CC2(CC(NC(=O)CCc3ccc4c(n3)NCCC4)C2)C1)c1cc(Cl)cc(Cl)c1 (stereo partly drawn) [Example 29]
14 nM | O=C(O)CC(c1cccc(N2CCOCC2)c1)C1CC(CCCCc2ccc3c(n2)NCCC3)C1 (stereo not drawn) [Example 146, 3-(3-Morpholinophenyl)-3-(3-(4-(5,6,7,8-tetrahydro-1,8-naphthyridin-2-yl)butyl)cyclobutyl)propanoic acid]
4300 nM | COc1ccc(C(NC(=O)C2CC(CCc3ccc4c(n3)NCCC4)C2)C(C)(C)C(=O)O)cn1 (stereo not drawn) [Example 191]
0.89 nM | O=C(O)C[C@@H](c1cc(Cl)cc(Cl)c1)N1CC(CCCCc2ccc3c(n2)NCCC3)C1=O (stereo partly drawn) [Example 109]
0.5 nM | COc1ccc([C@H](CC(=O)O)NC(=O)[C@H]2C[C@@H](CCc3ccc4c(n3)NCCC4)C2)cc1F [Example 54]
25 nM | COc1ccc([C@H](CC(=O)O)N2CC(CCCc3ccc4c(n3)NCCC4)C2=O)cn1 (single isomer, unassigned) [Example 181]
1.5 nM | O=C(O)C[C@@H](c1ccc2c(c1)OCC2)N1CC(CCCCc2ccc3c(n2)NCCC3)C1 [Example 155]
5000 nM | COc1ccc(C(NC(=O)C2CC(CCc3ccc4c(n3)NCCC4)C2)C(C)(C)C(=O)O)cn1 (single isomer, unassigned) [Example 189, 3-(6-methoxypyridin-3-yl)-2,2-dimethyl-3-(3-(2-(5,6,7,8-tetrahydro-1,8-naphthyridin-2-yl)ethyl)cyclobutane-1-carboxamido)propanoic acid]
6.5 nM | Cc1cc(C)c(S(=O)(=O)N[C@@H](CNC2CN(CCCc3ccc4c(n3)NCCC4)C2)C(=O)O)c(C)c1 [Example 73]
